# Laboratory results published in the NIST ThermoML archive (doi:10.1016/j.jct.2017.10.016).
# ± gives the expanded uncertainty stated by the source.
# Test: xn = mol fraction of the nth substance listed
# Conditions: Liquid, Buoyancy - hydrostatic balance with magnetic suspension - one sinker
compound,measurement,setting,value
"C=C(F)C(F)(F)F [2,3,3,3-tetrafluoro-1-propene] + CCC",mass density,"255.05 K, x1 = 0.217",705.65 ± 3.9 kg/m3
same,mass density,"255.24 K, x1 = 0.322",772.45 ± 3.9 kg/m3
same,mass density,"257.01 K, x1 = 0.422",831.62 ± 3.8 kg/m3
same,mass density,"259.89 K, x1 = 0.322",763.53 ± 3.8 kg/m3
same,mass density,"259.9 K, x1 = 0.533",897.69 ± 3.9 kg/m3
same,mass density,"260.22 K, x1 = 0.217",695.43 ± 3.9 kg/m3
same,mass density,"260.27 K, x1 = 0.422",825.19 ± 3.8 kg/m3
same,mass density,"264.82 K, x1 = 0.322",754.19 ± 3.8 kg/m3
same,mass density,"264.85 K, x1 = 0.533",887.37 ± 3.9 kg/m3
same,mass density,"264.95 K, x1 = 0.217",686.56 ± 3.9 kg/m3
same,mass density,"265.38 K, x1 = 0.422",815.01 ± 3.8 kg/m3
same,mass density,"269.81 K, x1 = 0.533",876.78 ± 3.8 kg/m3
same,mass density,"269.89 K, x1 = 0.217",677.65 ± 3.8 kg/m3
same,mass density,"269.95 K, x1 = 0.322",744.13 ± 3.8 kg/m3
same,mass density,"270.15 K, x1 = 0.422",805.93 ± 3.8 kg/m3
same,mass density,"270.16 K, x1 = 0.113",610.61 ± 3.9 kg/m3
same,mass density,"274.77 K, x1 = 0.533",865.74 ± 3.7 kg/m3
same,mass density,"274.83 K, x1 = 0.217",668.53 ± 3.8 kg/m3
same,mass density,"274.96 K, x1 = 0.113",602.76 ± 3.8 kg/m3
same,mass density,"275.02 K, x1 = 0.625",920.19 ± 3.6 kg/m3
same,mass density,"275.16 K, x1 = 0.422",794.82 ± 3.8 kg/m3
same,mass density,"275.2 K, x1 = 0.322",733.29 ± 3.7 kg/m3
same,mass density,"279.91 K, x1 = 0.217",658.85 ± 3.7 kg/m3
same,mass density,"279.98 K, x1 = 0.422",784.38 ± 3.7 kg/m3
same,mass density,"280.01 K, x1 = 0.113",594.34 ± 3.7 kg/m3
same,mass density,"280.03 K, x1 = 0.322",723.1 ± 3.7 kg/m3
same,mass density,"280.14 K, x1 = 0.625",907.78 ± 3.6 kg/m3
same,mass density,"280.17 K, x1 = 0.533",852.23 ± 3.7 kg/m3
same,mass density,"284.9 K, x1 = 0.322",712.55 ± 3.7 kg/m3
same,mass density,"284.91 K, x1 = 0.217",649.05 ± 3.6 kg/m3
same,mass density,"284.93 K, x1 = 0.113",585.81 ± 3.7 kg/m3
same,mass density,"284.95 K, x1 = 0.533",840.56 ± 3.6 kg/m3
same,mass density,"284.97 K, x1 = 0.422",774.16 ± 3.7 kg/m3
same,mass density,"285.18 K, x1 = 0.625",895.02 ± 3.6 kg/m3
same,mass density,"289.94 K, x1 = 0.533",828.05 ± 3.6 kg/m3
same,mass density,"289.97 K, x1 = 0.422",762.51 ± 3.6 kg/m3
same,mass density,"290 K, x1 = 0.533",827.87 ± 3.6 kg/m3
same,mass density,"290.02 K, x1 = 0.113",576.78 ± 3.6 kg/m3
same,mass density,"290.02 K, x1 = 0.217",638.62 ± 3.6 kg/m3
same,mass density,"290.08 K, x1 = 0.322",700.83 ± 3.6 kg/m3
same,mass density,"290.11 K, x1 = 0.625",882 ± 3.6 kg/m3
same,mass density,"294.96 K, x1 = 0.322",689.46 ± 3.6 kg/m3
same,mass density,"294.96 K, x1 = 0.422",750.87 ± 3.6 kg/m3
same,mass density,"294.97 K, x1 = 0.533",815.76 ± 3.5 kg/m3
same,mass density,"295 K, x1 = 0.113",567.56 ± 3.5 kg/m3
same,mass density,"295.22 K, x1 = 0.625",868.11 ± 3.5 kg/m3
same,mass density,"299.04 K, x1 = 0.422",742.17 ± 3.4 kg/m3
same,mass density,"299.86 K, x1 = 0.113",558.16 ± 3.5 kg/m3
same,mass density,"299.91 K, x1 = 0.533",803.63 ± 3.4 kg/m3
same,mass density,"300.13 K, x1 = 0.625",854.48 ± 3.4 kg/m3
